EC50 data for 25 compounds are collected here from patent publication US8796256B2 (Janssen Pharmaceutica NV, priority 2010, dated 2014).

Molecules are shown by their SMILES.

This experiment has as its target T1, ERR1 (also known as ERR-α or ERR-1) (Homo sapiens, UniProt P11474).
T1 sequence (P11474 193-421 limits assumed): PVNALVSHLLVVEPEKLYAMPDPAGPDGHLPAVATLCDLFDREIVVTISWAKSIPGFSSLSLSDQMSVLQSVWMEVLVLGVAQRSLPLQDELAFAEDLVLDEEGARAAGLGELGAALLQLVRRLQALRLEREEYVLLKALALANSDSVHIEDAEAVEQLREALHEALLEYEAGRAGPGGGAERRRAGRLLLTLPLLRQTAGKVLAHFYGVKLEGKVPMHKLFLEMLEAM
In words: TR-FRET assay (disruption of co-activator peptide binding to ERR1 LBD). The experiment is classed as biochemical. Conditions: 6 nM 6His-ERR1LBD, 6 nM GST-SRC-2 peptide; average of 3 independent experiments. The essentials:
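Homogeneous TR-FRET measuring displacement of GST-hSRC2 co-activator peptide (6 nM) from His-tagged ERR1 LBD (6 nM), detected with α-GST Eu cryptate (30 nM) and α-His-XL665 (7.5 nM). Buffer 25 mM Tris pH 8, 2.5 mM Hepes, 20 mM KCl, 1 mM DTT, 0.05 mg/mL delipidated BSA; equilibration 4-18 h at 25° C. Hyperbolic dose-response fit, mean of 3 experiments.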
Background: Time-resolved FRET reads energy transfer from a long-lived donor to a nearby acceptor.
The term EC50 denotes the concentration giving half of the maximal effect. Read a low EC50 as greater potency. `CS(=O)(=O)NN1C(=O)S/C(=C\c2ccc3c(c2)c(F)nn3Cc2ccc(Cl)cc2C(F)(F)F)C1=O` [Compound 368, N-[(5Z)-5-({1-[4-Chloro-2-(trifluoromethyl)benzyl]-3-fluoro-1H-indazol-5-yl}methylidene)-2,4-dioxo-1,3-thiazolidin-3-yl]methanesulfonamide]: it took 3 nM to reach a half-maximal effect (EC50). Regarding `O=C1S/C(=C\c2ccc3c(cnn3Cc3ccc(Cl)cc3C(F)(F)F)c2)C(=O)N1Cc1c[nH]cn1` [Compound 405, (5Z)-5-({1-[4-Chloro-2-(trifluoromethyl)benzyl]-1H-indazol-5-yl}methylidene)-3-(1H-imidazol-4-ylmethyl)-1,3-thiazolidine-2,4-dione], a half-maximal response (EC50) required 48 nM.

The compound `NC1(CCN2C(=O)S/C(=C\c3ccc4c(cnn4Cc4ccc(Cl)cc4C(F)(F)F)c3)C2=O)CCOCC1` [Compound 312, (5Z)-3-[2-(4-Aminotetrahydro-2H-pyran-4-yl)ethyl]-5-({1-[4-chloro-2-(trifluoromethyl)benzyl]-1H-indazol-5-yl}methylidene)-1,3-thiazolidine-2,4-dione] displayed an EC50 of 65 nM. `NN1C(=O)S/C(=C\c2ccc3c(cnn3Cc3ccc(Cl)cc3C(F)(F)F)c2)C1=O` [Compound 355, (5Z)-3-Amino-5-({1-[4-chloro-2-(trifluoromethyl)benzyl]-1H-indazol-5-yl}methylidene)-1,3-thiazolidine-2,4-dione] yielded an EC50 of 20 nM. For the compound `O=C(O)COCCN1C(=O)S/C(=C\c2ccc3c(cnn3Cc3ccc(Cl)cc3C(F)(F)F)c2)C1=O` [Compound 237, {2-[(5Z)-5-({1-[4-Chloro-2-(trifluoromethyl)benzyl]-1H-indazol-5-yl}methylidene)-2,4-dioxo-1,3-thiazolidin-3-yl]ethoxy}acetic acid], the EC50 came out at 98 nM.

For the compound `O=C1S/C(=C\c2ccc3c(cnn3Cc3ccc(Cl)cc3C(F)(F)F)c2)C(=O)N1[C@@H]1CCOC1` [Compound 125, (5Z)-5-({1-[4-Chloro-2-(trifluoromethyl)benzyl]-1H-indazol-5-yl}methylidene)-3-[(3R)-tetrahydrofuran-3-yl]-1,3-thiazolidine-2,4-dione], the midpoint of the response, the EC50, lay at 47 nM. `CC(C)(C)OC(=O)COCCN1C(=O)S/C(=C\c2ccc3c(cnn3Cc3ccc(Cl)cc3C(F)(F)F)c2)C1=O` [Compound 236, tert-Butyl {2-[(5Z)-5-({1-[4-chloro-2-(trifluoromethyl)benzyl]-1H-indazol-5-yl}methylidene)-2,4-dioxo-1,3-thiazolidin-3-yl]ethoxy}acetate]: it took 111 nM to reach a half-maximal effect (EC50).

Regarding `Cc1nc(CN2C(=O)S/C(=C\c3ccc4c(cnn4Cc4ccc(Cl)cc4C(F)(F)F)c3)C2=O)n[nH]1` [Compound 86, (5Z)-5-({1-[4-Chloro-2-(trifluoromethyl)benzyl]-1H-indazol-5-yl}methylidene)-3-[(5-methyl-1H-1,2,4-triazol-3-yl)methyl]-1,3-thiazolidine-2,4-dione], a half-maximal effect (EC50) was put at 89 nM. Consider `O=C(O)[C@@H]1C[C@@H](N2C(=O)S/C(=C\c3ccc4c(cnn4Cc4ccc(Cl)cc4C(F)(F)F)c3)C2=O)CN1` [Compound 181, (4R)-4-[(5Z)-5-({1-[4-Chloro-2-(trifluoromethyl)benzyl]-1H-indazol-5-yl}methylidene)-2,4-dioxo-1,3-thiazolidin-3-yl]-L-proline], for which a half-maximal effect (EC50) was put at 25 nM. As for `O=C1S/C(=C\c2ccc3c(cnn3Cc3ccc(Cl)cc3C(F)(F)F)c2)C(=O)N1C1(C(=O)O)CCOCC1` [Compound 227, 4-[(5Z)-5-({1-[4-Chloro-2-(trifluoromethyl)benzyl]-1H-indazol-5-yl}methylidene)-2,4-dioxo-1,3-thiazolidin-3-yl]etrahydro-2H-pyran-4-carboxylic acid], the figure is 53 nM; as for `O=C1S/C(=C\c2ccc3c(cnn3Cc3ccc(Cl)cc3C(F)(F)F)c2)C(=O)N1CCN1CCCC(F)C1` (stereo not shown) [Compound 74, (5Z)-5-({1-[4-Chloro-2-(trifluoromethyl)benzyl]-1H-indazol-5-yl}methylidene)-3-[2-(3-fluoropiperidin-1-yl)ethyl]-1,3-thiazolidine-2,4-dione], 110 nM.

As for `Cc1noc(C)c1S(=O)(=O)NCCN1C(=O)S/C(=C\c2ccc3c(cnn3Cc3ccc(Cl)cc3C(F)(F)F)c2)C1=O` [Compound 419, N-{2-[(5Z)-5-({1-[4-Chloro-2-(trifluoromethyl)benzyl]-1H-indazol-5-yl}methylidene)-2,4-dioxo-1,3-thiazolidin-3-yl]ethyl}-3,5-dimethylisoxazole-4-sulfonamide], the EC50 stood at 115 nM.

In the case of `O=C1S/C(=C\c2ccc3c(cnn3Cc3ccc(Cl)cc3C(F)(F)F)c2)C(=O)N1[C@@H]1CCNC[C@H]1O` (relative stereo) [Compound 270, (5Z)-5-({1-[4-Chloro-2-(trifluoromethyl)-benzyl]-1H-indazol-5-yl}methylidene)-3-[trans-3-hydroxypiperidin-4-yl]-1,3-thiazolidine-2,4-dione], the EC50 turned out to be 25 nM.

As for `O=C1S/C(=C\c2ccc3c(cnn3Cc3ccc(Cl)cc3C(F)(F)F)c2)C(=O)N1CCN1CCNCC1` [Compound 163, (5Z)-5-({1-[4-Chloro-2-(trifluoromethyl)benzyl]-1H-indazol-5-yl}methylidene)-3-(2-piperazin-1-ylethyl)-1,3-thiazolidine-2,4-dione], the EC50 is 38 nM. `O=C1S/C(=C\c2ccc3c(cnn3Cc3ccc(C(F)(F)F)cc3C(F)(F)F)c2)C(=O)N1CCN1CCCC1` [Compound 84, (5Z)-5-({1-[2,4-Bis(trifluoromethyl)benzyl]-1H-indazol-5-yl}methylidene)-3-(2-pyrrolidin-1-ylethyl)-1,3-thiazolidine-2,4-dione] came in with an EC50 of 580 nM. In turn, `CS(=O)(=O)NN1C(=O)S/C(=C\c2ccc3c(c2)c(Cl)nn3Cc2ccc(Cl)cc2C(F)(F)F)C1=O` [Compound 366, N-[(5Z)-5-({3-Chloro-1-[4-chloro-2-(trifluoromethyl)benzyl]-1H-indazol-5-yl}methylidene)-2,4-dioxo-1,3-thiazolidin-3-yl]methanesulfonamide] showed an EC50 of 6 nM. As for `N[C@@H]1CCCC[C@H]1N1C(=O)S/C(=C\c2ccc3c(cnn3Cc3ccc(Cl)cc3C(F)(F)F)c2)C1=O` [Compound 174, (5Z)-3-[(1R,2R)-2-Aminocyclohexyl]-5-({1-[4-chloro-2-(trifluoromethyl)benzyl]-1H-indazol-5-yl}methylidine)-1,3-thiazolidine-2,4-dione], the figure is 150 nM; as for `O=C1S/C(=C\c2ccc3c(cnn3Cc3ccc(Cl)cc3C(F)(F)F)c2)C(=O)N1CCNCCO` [Compound 52, (5Z)-5-({1-[4-Chloro-2-(trifluoromethyl)benzyl]-1H-indazol-5-yl}methylidene)-3-{2-[(2-hydroxyethyl)amino]ethyl}-1,3-thiazolidine-2,4-dione], 27 nM; as for `O=C1S/C(=C\c2ccc3c(c2)nnn3Cc2ccc(Cl)cc2C(F)(F)F)C(=O)N1C[C@H]1COCCN1` [Compound 267, (5Z)-5-({1-[4-Chloro-2-(trifluoromethyl)benzyl]-1H-benzotriazol-5-yl}methylidene)-3-[(3S)-morpholin-3-ylmethyl]-1,3-thiazolidine-2,4-dione], 11 nM.

On to `CC[C@@H](CN1C(=O)S/C(=C\c2ccc3c(cnn3Cc3ccc(Cl)cc3C(F)(F)F)c2)C1=O)NS(C)(=O)=O` [Compound 156, N-[(1S)-1-{[(5Z)-5-({1-[4-Chloro-2-(trifluoromethyl)benzyl]-1H-indazol-5-yl}methylidene)-2,4-dioxo-1,3-thiazolidin-3-yl]methyl}propyl] methanesulfonamide], for which a half-maximal effect (EC50) was put at 27 nM. `CC(=O)NCCN1C(=O)S/C(=C\c2ccc3c(cnn3Cc3ccc(Cl)cc3C(F)(F)F)c2)C1=O` [Compound 389, N-{2-[(5Z)-5-({1-[4-Chloro-2-(trifluoromethyl)benzyl]-1H-indazol-5-yl}methylidene)-2,4-dioxo-1,3-thiazolidin-3-yl]ethyl}acetamide]: the EC50 came to 26 nM. With `O=C1S/C(=C\c2ccc3c(cnn3[C@H]3CCc4cc(Cl)ccc43)c2)C(=O)N1CCN1CCCC1` [Compound 172, (5Z)-5-({1-[(1S)-5-Chloro-2,3-dihydro-1H-inden-1-yl]-1H-indazol-5-yl}methylidene)-3-(2-pyrrolidin-1-ylethyl)-1,3-thiazolidine-2,4-dione], the EC50 was determined as 300 nM. In turn, `O=C1S/C(=C\c2ccc3c(cnn3Cc3ccc(Cl)cc3C(F)(F)F)c2)C(=O)N1C[C@H](O)CN1CC[C@@H](F)C1` [Compound 294, (5Z)-5-({1-[4-Chloro-2-(trifluoromethyl)benzyl]-1H-indazol-5-yl}methylidene)-3-{(2R)-3-[(3R)-3-fluoropyrrolidin-1-yl]-2-hydroxypropyl}-1,3-thiazolidine-2,4-dione] showed an EC50 of 63 nM. As for `O=C1S/C(=C\c2ccc3c(cnn3Cc3ccc(C(F)(F)F)cc3C(F)(F)F)c2)C(=O)N1C[C@H]1CN2CCC[C@H]2CO1` [Compound 208, (5Z)-5-({1-[2,4-Bis(trifluoromethyl)benzyl]-1H-indazol-5-yl}methylidene)-3-[(3R,8aS)-hexahydro-1H-pyrrolo[2,1-c][1,4]oxazin-3-ylmethyl]-1,3-thiazolidine-2,4-dione], the figure is 136 nM. As for `O=C1S/C(=C\c2ccc3c(cnn3Cc3ccc(Cl)cc3C(F)(F)F)c2)C(=O)N1C[C@H]1CCCNC1` [Compound 96, (5Z)-5-({1-[4-Chloro-2-(trifluoromethyl)benzyl]-1H-indazol-5-yl}methylidene)-3-[(3S)-piperidin-3-ylmethyl]-1,3-thiazolidine-2,4-dione], the figure is 67 nM.
